Here are results for 3 compounds from paper doi:10.1101/2023.04.17.537234, “A biophysical rationale for the selective inhibition of PTP1B over TCPTP by nonpolar terpenoids” (bioRxiv, 2023).

One series concerns the target TCPTP. Put plainly: pNPP enzyme kinetics, inhibition by amorphadiene. In kind it is biochemical, H. Sapiens. The protocol:
(§1) We overexpressed all proteins examined in this study in BL21(DE3) cells by carrying out steps described previously: (i) We used Gibson assembly to introduce mutations for PTP1B or TCPTP encoded by a pET16b vector and transformed sequence-confirmed plasmids into BL21(DE3) cells. (ii) We used an individual colony from each transformation to inoculate 20 mL of LB media, which we incubated at 37°C in an incubator-shaker (225 rpm) for 6 hours, prior to inoculating 1 L of rich induction media (20 g tryptone, 10 g yeast extract, 5 g sodium chloride, 50 μg/mL carbenicillin, 72 mL 5X M9 salts solution, 20 mL of 20% glucose solution). (iii) We grew the resulting inoculum at 37°C and 225 rpm. (iv) At an OD600 of 0.5–0.8, we added 500 μM IPTG to induce protein expression and incubated the induced flasks at 22°C and 225 rpm for 18–20 hours. (v) We pelleted the final culture (5000 rpm for 10 minutes in a Beckman J2-HS floor centrifuge), disposed of the supernatants, and stored the cell pellets at −80°C freezer for future purification. We purified PTP variants with fast protein liquid chromatography (FPLC) using previously described protocols. In brief, we lysed cells with chemical lysis buffer (for each gram of cell pellet, we used 4 mL of 20 mM tris base, 50 mM sodium chloride, 1% Triton X-100, and pH 7.5 supplemented with 2 mg MgSO4–7H2O, 2 mg TAME, 0.5 mL TCEP (0.5 mM), 3.75 μL PMSF solution, 1 mg lysozyme, and 30 U DNase), removed protein debris with saturated ammonium sulfate (20% for PTP1B variants and 10% TCPTP variants, respectively), and extracted the supernatant. We purified PTPs by using nickel affinity chromatography (HisTrap HP with 50 mM Tris-HCl, 300 mM sodium chloride, and 0.5 mM TCEP at pH 7.5 with and without 500 mM imidazole) followed by anion exchange chromatography (HiTrap HP 5 mL with 50 mM HEPES, and 0.5 mM TCEP at pH 7.5 with and without 1 M NaCl). We concentrated final protein fractions into NaCl-free anion exchange buffer ([…], Sartorius) and stored them in 20% glycerol at −80°C.
(§2) We characterized the activity of PTP variants on p-nitrophenyl phosphate (pNPP). In brief, we used 96-well plates to prepare 200-μL reactions with 50 nM enzyme, 50 μg/mL BSA, and varying amorphadiene concentrations (0.5 – 500 μM) in 50 mM HEPES buffer (pH = 7.3) with 10% DMSO. We used 20 mM substrate to initialize the reactions and monitored the formation of p-nitrophenol (pNP) by measuring absorbance at 405 nm at 30-s intervals over 8 minutes (SpectraMax iD3 plate reader). We used standard curves to convert absorbance measurements to product concentrations and used the slopes of the initial rate regime for Vo.

In series [1] the target is PTP1B. The series is described as follows: pNPP enzyme kinetics, inhibition by amorphadiene. The series is classed as biochemical, H. Sapiens. The procedure:
as §1, §2

The test system of series [2] is PTP1B. Particulars: PTP1B over TCPTP; cited from earlier work.
A short description of another series: Solubility. The series is classed as physicochemical.

Regarding `C=C(C)[C@@H]1CC[C@@H](C)[C@@H]2CCC(C)=C[C@@H]21` [AD, amorphadiene], the “IC50 of AD, mutant vs wild-type” value on TCPTP (TCPTP K280M) is reported as “no effect on IC50”; against TCPTP (TCPTP L158F vs wild-type) it was “indistinguishable”; on TCPTP (TCPTP R288Q), “no effect on IC50”; on PTP1B [1] (PTP1B L158F vs wild-type) it was “indistinguishable”; on PTP1B [1] (PTP1B M282K), “reduced potency”; against PTP1B [1] (PTP1B Q290R), “reduced potency”. Moreover, the “selectivity: inhibits PTP1B more potently than TCPTP” value with PTP1B [2] is 5–7 X.

As to `CC(C)=CCC=C(C)C1CC=C(C)CC1` (stereo not drawn) [AB, α-bisabolene], in the series “Solubility”, the solubility result is “low solubility”. Further, the “selectivity: inhibits PTP1B more potently than TCPTP” value with PTP1B [2] is recorded as 5–7 X.

Take `CCc1oc2cc(S(=O)(=O)Nc3ccc(S(=O)(=O)Nc4nccs4)cc3)ccc2c1C(=O)c1cc(Br)c(O)c(Br)c1` [BBR, 3-(3,5-Dibromo-4-hydroxy-benzoyl)-2-ethyl-benzofuran-6-sulfonic-acid-(4-(thiazol-2-ylsulfamyl)-phenyl)-amide, reference compound]: in the series on PTP1B [2], the “selectivity: inhibits PTP1B more potently than TCPTP” value was 5–6 X.
